Measurements reported in patent publication US11260100B2, “Compositions targeting the interaction domain between p27Kip1 and Brk and methods of use thereof to inhibit p27 Y phosphorylation and cdk4 activity” (The Research Foundation for the State University of New York, priority 2014, dated 2022).

Test system: MCF7-ALT cells
Experiment: Long-term proliferation arrest at IC100 (FIG. 15A)
Type: cell-based, human
Conditions: IC100 Palbociclib, doxycycline induced ALT, replenished every two days
Experimental: FIGS. 15A-15C: ALT and PD treatment increases senescence, a clinical goal. FIG. 15A: MCF7-ALT cells were treated with IC100 concentration of Palbociclib (PD) or doxycycline to induce ALT. Drugs were replenished every two days and proliferation was determined by cell counting as indicated. Proliferation rates were standardized to the rate of proliferation seen in DMSO treated cells (control). PD treated cells were arrested for 10 days, before escape (proliferation) was detected. ALT expressing cells were arrested for 18 days before escape (proliferation) was detected. ALT expressing and PD treated cells were arrested for 30 days, with no escape detected. […] Proliferation was assessed by counting. […] Viability was measured by trypan blue staining and the ALT expressing, PD treated cells that weren't growing were viable. […]
MCF7-ALT cells were treated with a IC100 concentration of Palbociclib (PD) or doxycycline to induce ALT. Drugs were replenished every two days and proliferation was determined by cell counting as indicated. […] PD treated cells were arrested for 10 days, before escape (proliferation) was detected. ALT expressing cells were arrested for 18 days before escape (proliferation) was detected. ALT expressing and PD treated cells were arrested for 30 days, with no escape detected. […] Proliferation was assessed by counting. […]

Compound: CC(=O)c1c(C)c2cnc(Nc3ccc(N4CCNCC4)cn3)nc2n(C2CCCC2)c1=O [PD0332991]
- time arrested before escape (proliferation): 10 days
